Results published in patent publication US12115165B2, “Use of reboxetine to treat narcolepsy” (AXSOME THERAPEUTICS, INC., priority 2018, dated 2024).
Values joined by “and” are separate entries in the source; they are usually repeats but may differ in a detail not shown here. Equal entries are not always repeated.

How the values were obtained:
[1] = tested on: patients with a diagnosis of narcolepsy with cataplexy; test: Phase 2, double-blind, randomized, placebo-controlled, crossover, multicenter trial of reboxetine in patients with narcolepsy; assay type: in vivo, human
Procedure: A Phase 2, double-blind, randomized, placebo-controlled, crossover, multicenter trial of reboxetine was carried out in patients with narcolepsy. A total of 21 patients with a diagnosis of narcolepsy with cataplexy were treated for 2 weeks with reboxetine or with placebo, followed by a crossover to the other treatment after a 1-week down-titration and washout period. Reboxetine was administered orally twice daily, with a total daily dose of 8 mg for Week 1 which was escalated to 10 mg for Week 2. Patients were randomized in a 1:1 ratio either to treatment with reboxetine followed by placebo (sequence 1), or to treatment with placebo followed by reboxetine (sequence 2). The average number of cataplexy attacks at baseline was 30. Key assessments were made daily using an electronic diary. The prespecified primary endpoint was the change in the weekly number of cataplexy attacks, averaged over the 2-week treatment period (overall treatment effect). Secondary endpoints included changes in the number of inadvertent naps, cognition, and Epworth Sleepiness Scale. Cognition was assessed using the Ability to Concentrate item of the Narcolepsy Symptom Assessment Questionnaire, a patient reported outcome measure. This item is rated on 5-point scale (1=very good to 5=very poor). All analyses were conducted on an intent-to-treat basis.

[2] = tested on: patient diagnosed as suffering from narcolepsy with cataplexy; test: Single-patient examples: reboxetine 5 mg at 8 am and 5 mg at 1 pm for three weeks in narcolepsy with cataplexy; assay type: in vivo, human
Procedure: (§1) A person is diagnosed as suffering from narcolepsy with cataplexy. They are given reboxetine and instructed to take 5 mg of reboxetine at 8 am and 5 mg of reboxetine at 1 pm for three weeks. The patient is evaluated prior to treatment, and weekly to determine the MWT score, the number of cataplexy attacks, the PGI-C score, the HAM-D score, the ESS score, the NSAQ score, and the ability to concentrate on the NSAQ. After one week of treatment, the number of cataplexy attacks have decreased by 10-30%.
as §1, with “30-60%.” for “10-30%.”
as §1, with “60-100%.” for “10-30%.”
as §1, with “ESS score has” for “number of cataplexy attacks have”
as §1, with “ESS score has” for “number of cataplexy attacks have”, “30-60%.” for “10-30%.”
as §1, with “ESS score has” for “number of cataplexy attacks have”, “60-100%.” for “10-30%.”
as §1, with “MWT score has” for “number of cataplexy attacks have”
as §1, with “MWT score has” for “number of cataplexy attacks have”, “30-60%. […]” for “10-30%.”

[3] = human patients; without controlled release coating; cited from earlier work

CCOc1ccccc1OC(c1ccccc1)C1CNCCO1 (centres unmarked) [reboxetine]
patients with an ability to concentrate that was good to very good (Ability to Concentrate item of the NSAQ) ([1]; Week 1, p=0.007 vs placebo): 38.1% | mean reduction from baseline in cataplexy attacks ([1]; Week 2): 48.7% | mean reduction of cataplexy attacks per week ([1]; Week 2, baseline average 30 attacks, p=0.002 vs placebo): 14.6 cataplexy attacks per week | mean reduction from baseline in the average weekly number of inadvertent naps ([1]; Week 2, p<0.001 vs placebo, FIG. 5): 31.8% | proportion of patients achieving a 50% or greater reduction in the weekly number of cataplexy attacks ([1]; Week 2, p=0.003 vs placebo, FIG. 2): 76.2% | proportion of patients achieving a 75% or greater reduction in the weekly number of cataplexy attacks ([1]; Week 2, p=0.018 vs placebo, FIG. 3): 42.9% | mean reduction from baseline in cataplexy attacks ([1]; after 1-week treatment): 43.3% | mean reduction of cataplexy attacks ([1]; after 1-week treatment, p<0.001 vs placebo): 13.0 cataplexy attacks | patients with reductions in hypnagogic hallucinations ([1]; as compared to placebo, FIG. 9): greater proportion of patients with reductions | patients with reductions in sleep paralysis episodes ([1]; as compared to placebo, FIG. 9): greater proportion of patients with reductions | patients with an ability to concentrate that was good to very good (Ability to Concentrate item of the NSAQ) ([1]; end of the 2-week treatment period, 0% at baseline): 42.9% | discontinuations due to adverse events ([1]; human, in vivo): no discontinuations due to adverse events | most commonly reported adverse events ([1]; human, in vivo): anxiety, constipation, and insomnia | safety and tolerability ([1]; human, in vivo): safe and well tolerated | serious adverse events ([1]; human, in vivo): no serious adverse events | reduction in the Epworth Sleepiness Scale (ESS) score from baseline ([1]; p=0.003 vs placebo, FIG. 4): 6.0 | patients reporting improved sleep quality ([1]; p=0.007 vs placebo, FIG. 9): 45.0% | patients with 50% or greater reduction in inadvertent naps ([1]; p=0.036 vs placebo, FIG. 6): 38.1% | patients reporting a reduction in the number of awakenings at night ([1]; p=0.044 vs placebo, FIG. 9): 30.0% | overall percentage of patients experiencing adverse events ([1]; placebo 40.0%): 42.9% | reduction from baseline in the mean weekly number of cataplexy attacks, averaged for the 2-week treatment period (overall treatment effect), primary endpoint ([1]; vs placebo, p<0.001, 8 mg/day Week 1, 10 mg/day Week 2, oral twice daily, FIG. 1): highly statistically significant reduction | decrease in ESS score ([2]; after one week of treatment): 10-30% and 30-60% and 60-100% | decrease in MWT score ([2]; after one week of treatment): 10-30% and 30-60% and 60-100% | decrease in number of cataplexy attacks ([2]; after one week of treatment): 10-30% and 30-60% and 60-100% | decrease in ESS score ([2]; after three weeks of treatment): 10-30% and 30-60% and 60-100% | decrease in HAM-D score ([2]; after three weeks of treatment): 10-30% and 30-60% and 60-100% | decrease in MWT score ([2]; after three weeks of treatment): 10-30% and 30-60% and 60-100% | decrease in number of cataplexy attacks ([2]; after three weeks of treatment): 10-30% and 30-60% and 60-100% | time to reach a maximum plasma concentration [3]: 2 to 4 h
